Laboratory results: patent publication US10131652B2, “Pyrimidinyloxy benzene derivatives as herbicides” (E. I. DU PONT DE NEMOURS AND COMPANY, priority 2014, dated 2018)

Columns and labels:
Test in all cases: Test F pre-/postemergence plant response
Assay type in all cases: in vivo
Settings in all cases: scale 0 to 100
[1] = system: Italian ryegrass (Lolium multiflorum)
Method in brief: (§1)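 Visual control ratings were scored 0 (no effect) to 100 (complete control) versus untreated plants after 14–21 greenhouse days. Compounds, formulated in a surfactant-containing non-phytotoxic solvent, were applied both to silt loam at planting (preemergence) and to 1- to 4-leaf plants 2–18 cm tall (postemergence).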

[2] = system: arrowleaf sida (Sida rhombifolia)
Method in brief: as §1

[3] = system: barnyardgrass (Echinochloa crus-galli)
Method in brief: as §1

corn (Zea mays) = system: corn (Zea mays)
Method in brief: as §1

[4] = system: dayflower (Virginia (VA) dayflower, Commelina virginica)
Method in brief: as §1

[5] = system: goosegrass (Eleusine indica)
Method in brief: as §1

[6] = system: hairy beggarticks (Bidens pilosa)
Method in brief: as §1

[7] = system: lambsquarters (Chenopodium album)
Method in brief: as §1

[8] = system: palmer pigweed (Amaranthus palmeri)
Method in brief: as §1

[9] = system: ragweed (common ragweed, Ambrosia elatior)
Method in brief: as §1

[10] = system: sandbur (southern sandbur, Cenchrus echinatus)
Method in brief: as §1

soybean (Glycine max) = system: soybean (Glycine max)
Method in brief: as §1

[11] = system: surinam grass (Brachiaria decumbens)
Method in brief: as §1

[12] = system: velvetleaf (Abutilon theophrasti)
Method in brief: as §1

[13] = system: waterhemp (common waterhemp, Amaranthus rudis)
Method in brief: as §1

[14] = system: yellow nutsedge (Cyperus esculentus)
Method in brief: as §1

Fc1ccc(Oc2ncc(Cl)cn2)c(-c2cc(C(F)F)on2)c1Cl [Compound 96]
Plant response rating, Ryegrass, Italian ([1]; 16 g ai/ha Postemergence): 0 | Plant response rating, Ryegrass, Italian ([1]; 16 g ai/ha Preemergence): 0 | Plant response rating, Ryegrass, Italian ([1]; 31 g ai/ha Postemergence): 0 | Plant response rating, Ryegrass, Italian ([1]; 31 g ai/ha Preemergence): 0 | Plant response rating, Ryegrass, Italian ([1]; 62 g ai/ha Postemergence): 0 | Plant response rating, Ryegrass, Italian ([1]; 125 g ai/ha Postemergence): 10 | Plant response rating, Ryegrass, Italian ([1]; 125 g ai/ha Preemergence): 30 | Plant response rating, Ryegrass, Italian ([1]; Preemergence): 30 | Plant response rating, Arrowleaf Sida ([2]; 16 g ai/ha Postemergence): 70 | Plant response rating, Arrowleaf Sida ([2]; 16 g ai/ha Preemergence): 50 | Plant response rating, Arrowleaf Sida ([2]; 31 g ai/ha Postemergence): 80 | Plant response rating, Arrowleaf Sida ([2]; 31 g ai/ha Preemergence): 70 | Plant response rating, Arrowleaf Sida ([2]; 62 g ai/ha Postemergence): 90 | Plant response rating, Arrowleaf Sida ([2]; 62 g ai/ha Preemergence): 80 | Plant response rating, Arrowleaf Sida ([2]; 125 g ai/ha Postemergence): 95 | Plant response rating, Arrowleaf Sida ([2]; 125 g ai/ha Preemergence): 90 | Plant response rating, Barnyardgrass ([3]; 16 g ai/ha Postemergence): 0 | Plant response rating, Barnyardgrass ([3]; 16 g ai/ha Preemergence): 0 | Plant response rating, Barnyardgrass ([3]; 31 g ai/ha Postemergence): 10 | Plant response rating, Barnyardgrass ([3]; 31 g ai/ha Preemergence): 0 | Plant response rating, Barnyardgrass ([3]; 62 g ai/ha Postemergence): 20 | Plant response rating, Barnyardgrass ([3]; 62 g ai/ha Preemergence): 0 | Plant response rating, Barnyardgrass ([3]; 125 g ai/ha Postemergence): 20 | Plant response rating, Barnyardgrass ([3]; 125 g ai/ha Preemergence): 0 | Plant response rating, Corn (corn (Zea mays); 16 g ai/ha Postemergence): 0 | Plant response rating, Corn (corn (Zea mays); 16 g ai/ha Preemergence): 0 | Plant response rating, Corn (corn (Zea mays); 31 g ai/ha Postemergence): 5 | Plant response rating, Corn (corn (Zea mays); 31 g ai/ha Preemergence): 0 | Plant response rating, Corn (corn (Zea mays); 62 g ai/ha Postemergence): 10 | Plant response rating, Corn (corn (Zea mays); 62 g ai/ha Preemergence): 0 | Plant response rating, Corn (corn (Zea mays); 125 g ai/ha Postemergence): 10 | Plant response rating, Corn (corn (Zea mays); 125 g ai/ha Preemergence): 0 | Plant response rating, Dayflower, VA ([4]; 16 g ai/ha Postemergence): 20 | Plant response rating, Dayflower, VA ([4]; 16 g ai/ha Preemergence): 0 | Plant response rating, Dayflower, VA ([4]; 31 g ai/ha Postemergence): 40 | Plant response rating, Dayflower, VA ([4]; 31 g ai/ha Preemergence): 0 | Plant response rating, Dayflower, VA ([4]; 62 g ai/ha Postemergence): 70 | Plant response rating, Dayflower, VA ([4]; 62 g ai/ha Preemergence): 0 | Plant response rating, Dayflower, VA ([4]; 125 g ai/ha Postemergence): 70 | Plant response rating, Dayflower, VA ([4]; 125 g ai/ha Preemergence): 20 | Plant response rating, Goosegrass ([5]; 16 g ai/ha Preemergence): 50 | Plant response rating, Goosegrass ([5]; 31 g ai/ha Preemergence): 40 | Plant response rating, Goosegrass ([5]; 125 g ai/ha Preemergence): 60 | Plant response rating, Goosegrass ([5]; Preemergence): 40 | Plant response rating, Beggarticks ([6]; 16 g ai/ha Postemergence): 0 | Plant response rating, Beggarticks ([6]; 16 g ai/ha Preemergence): 0 | Plant response rating, Beggarticks ([6]; 31 g ai/ha Postemergence): 30 | Plant response rating, Beggarticks ([6]; 31 g ai/ha Preemergence): 0 | Plant response rating, Beggarticks ([6]; 62 g ai/ha Postemergence): 40 | Plant response rating, Beggarticks ([6]; 62 g ai/ha Preemergence): 0 | Plant response rating, Beggarticks ([6]; 125 g ai/ha Postemergence): 40 | Plant response rating, Beggarticks ([6]; 125 g ai/ha Preemergence): 20 | Plant response rating, Lambsquarters ([7]; 16 g ai/ha Preemergence): 5 | Plant response rating, Lambsquarters ([7]; 31 g ai/ha Preemergence): 100 | Plant response rating, Lambsquarters ([7]; 125 g ai/ha Preemergence): 100 | Plant response rating, Lambsquarters ([7]; Preemergence): 100 | Plant response rating, Pigweed, Palmer ([8]; 16 g ai/ha Postemergence): 70 | Plant response rating, Pigweed, Palmer ([8]; 16 g ai/ha Preemergence): 80 | Plant response rating, Pigweed, Palmer ([8]; 31 g ai/ha Postemergence): 80 | Plant response rating, Pigweed, Palmer ([8]; 31 g ai/ha Preemergence): 98 | Plant response rating, Pigweed, Palmer ([8]; 62 g ai/ha Postemergence): 95 | Plant response rating, Pigweed, Palmer ([8]; 125 g ai/ha Postemergence): 90 | Plant response rating, Pigweed, Palmer ([8]; 125 g ai/ha Preemergence): 100 | Plant response rating, Pigweed, Palmer ([8]; Preemergence): 100 | Plant response rating, Ragweed ([9]; 16 g ai/ha Postemergence): 15 | Plant response rating, Ragweed ([9]; 16 g ai/ha Preemergence): 0 | Plant response rating, Ragweed ([9]; 31 g ai/ha Postemergence): 20 | Plant response rating, Ragweed ([9]; 31 g ai/ha Preemergence): 20 | Plant response rating, Ragweed ([9]; 62 g ai/ha Postemergence): 20 | Plant response rating, Ragweed ([9]; 125 g ai/ha Postemergence): 40 | Plant response rating, Ragweed ([9]; 125 g ai/ha Preemergence): 35 | Plant response rating, Ragweed ([9]; Preemergence): 50 | Plant response rating, Sandbur ([10]; 16 g ai/ha Postemergence): 0 | Plant response rating, Sandbur ([10]; 16 g ai/ha Preemergence): 0 | Plant response rating, Sandbur ([10]; 31 g ai/ha Postemergence): 0 | Plant response rating, Sandbur ([10]; 31 g ai/ha Preemergence): 10 | Plant response rating, Sandbur ([10]; 62 g ai/ha Postemergence): 0 | Plant response rating, Sandbur ([10]; 125 g ai/ha Postemergence): 0 | Plant response rating, Sandbur ([10]; 125 g ai/ha Preemergence): 30 | Plant response rating, Sandbur ([10]; Preemergence): 40 | Plant response rating, Soybean (soybean (Glycine max); 16 g ai/ha Postemergence): 40 | Plant response rating, Soybean (soybean (Glycine max); 16 g ai/ha Preemergence): 0 | Plant response rating, Soybean (soybean (Glycine max); 31 g ai/ha Preemergence): 0 | Plant response rating, Soybean (soybean (Glycine max); 62 g ai/ha Postemergence): 40 | Plant response rating, Soybean (soybean (Glycine max); 125 g ai/ha Postemergence): 80 | Plant response rating, Soybean (soybean (Glycine max); 125 g ai/ha Preemergence): 0 | Plant response rating, Soybean (soybean (Glycine max); Preemergence): 0 | Plant response rating, Surinam Grass ([11]; 16 g ai/ha Preemergence): 0 | Plant response rating, Surinam Grass ([11]; 31 g ai/ha Preemergence): 0 | Plant response rating, Surinam Grass ([11]; 125 g ai/ha Preemergence): 0 | Plant response rating, Surinam Grass ([11]; Preemergence): 0 | Plant response rating, Velvetleaf ([12]; 16 g ai/ha Preemergence): 0 | Plant response rating, Velvetleaf ([12]; 31 g ai/ha Preemergence): 60 | Plant response rating, Velvetleaf ([12]; 125 g ai/ha Preemergence): 80 | Plant response rating, Velvetleaf ([12]; Preemergence): 80 | Plant response rating, Waterhemp ([13]; 16 g ai/ha Postemergence): 75 | Plant response rating, Waterhemp ([13]; 16 g ai/ha Preemergence): 40 | Plant response rating, Waterhemp ([13]; 31 g ai/ha Postemergence): 90 | Plant response rating, Waterhemp ([13]; 31 g ai/ha Preemergence): 100 | Plant response rating, Waterhemp ([13]; 62 g ai/ha Postemergence): 100 | Plant response rating, Waterhemp ([13]; 125 g ai/ha Postemergence): 95 | Plant response rating, Waterhemp ([13]; 125 g ai/ha Preemergence): 100 | Plant response rating, Waterhemp ([13]; Preemergence): 100 | Plant response rating, Nutsedge, Yellow ([14]; 16 g ai/ha Preemergence): 0 | Plant response rating, Nutsedge, Yellow ([14]; 31 g ai/ha Preemergence): 0 | Plant response rating, Nutsedge, Yellow ([14]; 125 g ai/ha Preemergence): 0 | Plant response rating, Nutsedge, Yellow ([14]; Preemergence): 0
